Measured values reported in patent US11019820B2 (BASF SE, priority 2013, dated 2021).

How the values were obtained:
Assay type in all cases: in vivo
Tetranychus spp = assay: Spider mite (Tetranychus spp) potted cotton plant spray test; details: sprayed potted cotton plants, 72 hours after treatment, read-out: mortality in comparison with untreated controls
Method: The active compound is dissolved at the desired concentration in a mixture of 1:1 (vol:vol) distilled water:acetone. The test solution is prepared at the day of use. Potted cotton plants at two weeks of age were cleaned, air dried and inoculated with approximately 50 mites of various stages. The potted plants are sprayed after the pest population has been recorded. Percent mortality is recorded 72 hours after treatment.

Nilaparvata lugens = assay: Rice brown plant hopper (Nilaparvata lugens) rice seedling spray test; details: 72 h, read-out: mortality in comparison with untreated controls
Method: (§1) Rice seedlings were cleaned and washed 24 hours before spraying. The active compounds were formulated in 50:50 acetone:water (vol:vol) and 0.1% vol/vol surfactant (EL 620) was added. Potted rice seedlings were sprayed with 5 ml test solution, air dried, placed in cages and inoculated with 10 adults. Treated rice plants were kept at about 28-29° C. and relative humidity of about 50-60%. Percent mortality was recorded after 72 hours.

Dichromothrips corbetti = assay: Orchid thrips (Dichromothrips corbetti) floral-immersion test; details: 72 h, read-out: mortality in comparison with untreated controls
Method: Dichromothrips corbetti adults used for bioassay were obtained from a colony maintained continuously under laboratory conditions. For testing purposes, the test compound is diluted in a 1:1 mixture of acetone:water (vol:vol), plus 0.01% vol/vol Alkannuls® EL 620 surfactant.
Thrips potency of each compound was evaluated by using a floral-immersion technique. Plastic petri dishes were used as test arenas. All petals of individual, intact orchid flowers were dipped into treatment solution and allowed to dry. Treated flowers were placed into individual petri dishes along with about 20 adult thrips. The petri dishes were then covered with lids. All test arenas were held under continuous light and a temperature of about 28° C. for duration of the assay. After 3 days, the numbers of live thrips were counted on each flower, and along inner walls of each petri dish. The percent mortality was recorded 72 hours after treatment.

Nephotettix virescens = assay: Rice green leafhopper (Nephotettix virescens) rice seedling spray test; details: 72 h, read-out: mortality in comparison with untreated controls
Method: as §1, with “(vol:vol),” for “(vol:vol)”

Myzus persicae = assay: Green peach aphid (Myzus persicae) systemic artificial diet test; details: 72 h, read-out: mortality in comparison with untreated controls (aphid mortality)
Text: For evaluating control of green peach aphid (Myzus persicae) through systemic means the test unit consisted of 96-well-microtiter plates containing liquid artificial diet under an artificial membrane.
The compounds were formulated using a solution containing 75% v/v water and 25% v/v DMSO. Different concentrations of formulated compounds were pipetted into the aphid diet, using a custom built pipetter, at two replications.
After application, 5-8 adult aphids were placed on the artificial membrane inside the microtiter plate wells. The aphids were then allowed to suck on the treated aphid diet and incubated at about 23±1° C. and about 50±5% relative humidity for 3 days. Aphid mortality and fecundity was then visually assessed.

Megoura viciae = assay: Vetch aphid (Megoura viciae) leaf disk test; details: foliar, 120 h, read-out: mortality in comparison with untreated controls (aphid mortality)
Method: For evaluating control of vetch aphid (Megoura viciae) through contact or systemic means the test unit consisted of 24-well-microtiter plates containing broad bean leaf disks.
The compounds were formulated using a solution containing 75% v/v water and 25% v/v DMSO. Different concentrations of formulated compounds were sprayed onto the leaf disks at 2.5 μl, using a custom built micro atomizer, at two replications.
After application, the leaf disks were air-dried and 5-8 adult aphids placed on the leaf disks inside the microtiter plate wells. The aphids were then allowed to suck on the treated leaf disks and incubated at about 23±1° C. and about 50±5% relative humidity for 5 days. Aphid mortality and fecundity was then visually assessed.

Cn1c2[n+](c([O-])c(-c3ccccc3)c1=O)[C@@H](c1cnc(Cl)s1)CC2 [Compound C-42]
> 75%: mortality at 500 ppm (Tetranychus spp) | mortality at 500 ppm (Nilaparvata lugens) | mortality at 500 ppm (Dichromothrips corbetti) | mortality at 500 ppm (Nephotettix virescens)

CC[n+]1c([O-])c(-c2ccccc2)c(=O)n2c1CCCC2c1ccc(Cl)nc1 (stereo not shown) [Compound C-9]
> 75%: mortality at 500 ppm (Tetranychus spp) | mortality at 2500 ppm (Myzus persicae) | mortality at 2500 ppm (Megoura viciae)
